Source: patent publication US10829520B2, “Beta-hairpin peptidomimetics” (POLYPHOR AG, priority 2015, dated 2020)
Where a SMILES comes first, the peptide text is derived from it. Bridges are numbered along the chain shown (N, C = ends). [ ]: non-standard residue; d: D form. Pen = CC(C)(S)[C@H](N)C(=O)O; Tle = CC(C)(C)[C@H](N)C(=O)O; dDab = NCC[C@@H](N)C(=O)O; Dab = NCC[C@H](N)C(=O)O; Dap = NC[C@H](N)C(=O)O; Sar = CNCC(=O)O

What was measured:
Format in all cases: cell-based
[1] = tested on: Acinetobacter baumannii 872842; settings: 872842
[2] = tested on: Acinetobacter baumannii DSM 30008; settings: DSM 30008
Summary of the method: (§1)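 Read-out is the minimal inhibitory concentration in μg/mL, taken as the lowest peptide level without visible growth after 18-20 h at 35° C. Testing followed CLSI broth microdilution in cation-adjusted Mueller-Hinton II broth plus 0.002% Polysorbate 80, with roughly 10^6 CFU/mL.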

Escherichia coli 926415 = settings: 926415
[3] = tested on: Escherichia coli ATCC 25922; settings: ATCC 25922
Summary of the method: as §1

[4] = tested on: Klebsiella pneumoniae 968733; settings: 968733
[5] = tested on: Klebsiella pneumoniae SSI #3010; settings: SSI #3010
Summary of the method: as §1

[6] = tested on: Pseudomonas aeruginosa ATCC 27853; settings: ATCC 27853
Summary of the method: as §1

[7] = tested on: human red blood cells (hRBC); test: Hemolysis of human red blood cells; settings: red cells of human, 1 h
Summary of the method: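 Hemolysis was read as supernatant absorbance at 540 nm and expressed as a percentage of Triton X-100 (2.5%) lysis. Washed human red cells (20% v/v) had been exposed to each peptide at 100 μg/mL for 1 h at 37° C.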

| Compound | Acinetobacter baumannii 872842 MIC [1] [mg/L] | Acinetobacter baumannii DSM 30008 MIC [2] [mg/L] | Escherichia coli 926415 MIC (Escherichia coli 926415) [mg/L] | Escherichia coli ATCC 25922 MIC [3] [mg/L] | Klebsiella pneumoniae 968733 MIC [4] [mg/L] | Klebsiella pneumoniae SSI #3010 MIC [5] [mg/L] | Pseudomonas aeruginosa ATCC 27853 MIC [6] [mg/L] | Hemolysis at 100 μg/mL ([7]; 100 μg/mL) [%] | Hemolysis at 100 μg/mL [7]; 100 [%] |
| --- | --- | --- | --- | --- | --- | --- | --- | --- | --- |
| CC(C)C[C@@H]1NC(=O)[C@@H](CC(C)C)NC(=O)[C@H](CCN)NC(=O)[C@@H](NC(=O)[C@H](CCN)NC(=O)[C@@H](NC(=O)[C@H](CCN)NC(=O)CNC(=O)[C@@H]2CSSC[C@H](NC(=O)[C@@H](N)CC(C)C)C(=O)N[C@@H](C(C)C)C(=O)N[C@@H](C)C(=O)N[C@@H](Cc3ccc(O)cc3)C(=O)N[C@H](CCN)C(=O)N3CCC[C@H]3C(=O)N[C@@H](CC(C)C)C(=O)N[C@@H](CO)C(=O)N[C@@H](Cc3ccc(O)cc3)C(=O)N2)[C@@H](C)O)CCNC(=O)[C@H]([C@@H](C)O)NC(=O)[C@H](CCN)NC(=O)[C@H](CCN)NC1=O [Ex. 157] (H-LCVAY[dDab]PLSYCG[Dab]T[Dab][Dab][Dab][dL]L[Dab][Dab]T; disulfide 2-11; lactam 16-C) | 0.03125 | 0.0625 | 0.125 | 0.0625 | 1 | 0.125 | 0.5 | <1 |  |
| CC(C)C[C@@H]1NC(=O)[C@H](CO)NC(=O)[C@H](Cc2ccc(O)cc2)NC(=O)[C@@H]2CCCN2C(=O)[C@H]2CCCN2C(=O)[C@H]([C@@H](C)O)NC(=O)[C@H](C)NC(=O)[C@H](Cc2ccc(O)cc2)NC(=O)[C@@H](NC(=O)[C@@H](N)CC(C)C)CSSC[C@@H](C(=O)NCC(=O)N[C@@H](CCN)C(=O)N[C@H](C(=O)N[C@@H](CCN)C(=O)N[C@H]2CCNC(=O)[C@H]([C@@H](C)O)NC(=O)[C@H](CCN)NC(=O)[C@H](CCN)NC(=O)[C@H](CC(C)C)NC(=O)[C@@H](CC(C)C)NC(=O)[C@H](CCN)NC2=O)[C@@H](C)O)NC1=O [Ex. 158] (H-LCYAT[dP]PYSLCG[Dab]T[Dab][Dab][Dab][dL]L[Dab][Dab]T; disulfide 2-11; lactam 16-C) | 0.25 | 0.25 | 4 | 0.125 | 8 | 0.125 | 0.5 | <1 |  |
| CC(C)C[C@@H]1NC(=O)[C@@H](CC(C)C)NC(=O)[C@H](CCN)NC(=O)[C@@H](NC(=O)[C@H](CCN)NC(=O)[C@@H](NC(=O)[C@H](CCN)NC(=O)CN(C)C(=O)[C@@H]2CSSC[C@H](NC(=O)[C@@H](N)CC(C)C)C(=O)N[C@@H](C(C)C)C(=O)N[C@@H](CO)C(=O)N[C@@H](CO)C(=O)N3CCC[C@@H]3C(=O)N3CCC[C@H]3C(=O)N[C@@H](CC(C)C)C(=O)N[C@@H](CN)C(=O)N[C@@H](Cc3ccc(O)cc3)C(=O)N2)[C@@H](C)O)CCNC(=O)[C@H]([C@@H](C)O)NC(=O)[C@H](CCN)NC(=O)[C@H](CCN)NC1=O [Ex. 159] (H-LCVSS[dP]PL[Dap]YC[Sar][Dab]T[Dab][Dab][Dab][dL]L[Dab][Dab]T; disulfide 2-11; lactam 16-C) | 0.25 | 0.5 | 2 | 0.5 | 8 | 1 | 2 | <1 |  |
| CC(=O)N[C@@H](Cc1c[nH]c2ccccc12)C(=O)N[C@@H](CCN)C(=O)N[C@H](C(=O)N[C@H]1CSSC[C@@H](C(=O)N[C@@H](Cc2ccc(O)cc2)C(=O)N[C@@H](CCN)C(=O)N[C@@H](CN)C(=O)N[C@@H](CCN)C(=O)N[C@@H](CCN)C(=O)N[C@@H](CCN)C(=O)N[C@H]2CCNC(=O)[C@H]([C@@H](C)O)NC(=O)[C@H](CCN)NC(=O)[C@H](CCN)NC(=O)[C@H](CC(C)C)NC(=O)[C@@H](Cc3ccccc3)NC(=O)[C@H](CCN)NC2=O)NC(=O)[C@H](C(C)C)NC(=O)[C@@H]2CCCN2C(=O)[C@@H](Cc2ccc(O)cc2)NC(=O)[C@H]([C@@H](C)O)NC1=O)C(C)(C)C [Ex. 160] (Ac-W[Dab][Tle]CT[dY]PVCY[Dab][Dap][Dab][Dab][Dab][Dab][Dab][dF]L[Dab][Dab]T; disulfide 4-9; lactam 16-C) | 1 | 0.5 | 2 | 0.5 | 4 | 1 | 0.25 | <1 |  |
| CC(C)C[C@@H]1NC(=O)[C@@H](CC(C)C)NC(=O)[C@H](CCN)NC(=O)[C@@H](NC(=O)[C@H](CCN)NC(=O)[C@@H](NC(=O)[C@H](CCN)NC(=O)CN(C)C(=O)[C@H](CCN)NC(=O)[C@H](Cc2ccc(O)cc2)NC(=O)[C@@H]2CSSC[C@H](NC(=O)[C@@H](NC(=O)[C@H](CCN)NC(=O)[C@@H](N)Cc3c[nH]c4ccccc34)C(C)(C)C)C(=O)N[C@@H](CO)C(=O)N3CCC[C@@H]3C(=O)N3CCC[C@H]3C(=O)N[C@@H](CC(C)C)C(=O)N2)[C@@H](C)O)CCNC(=O)[C@H]([C@@H](C)O)NC(=O)[C@H](CCN)NC(=O)[C@H](CCN)NC1=O [Ex. 161] (H-W[Dab][Tle]CS[dP]PLCY[Dab][Sar][Dab]T[Dab][Dab][Dab][dL]L[Dab][Dab]T; disulfide 4-9; lactam 16-C) | 0.5 | 0.25 | 0.25 | 0.0625 | 2 | 0.125 | 0.5 | <1 |  |
| CC(C)C[C@@H]1NC(=O)[C@@H](CC(C)C)NC(=O)[C@H](CCN)NC(=O)[C@@H](NC(=O)[C@H](CCN)NC(=O)[C@@H](NC(=O)[C@H](CCN)NC(=O)CNC(=O)[C@H](CCN)NC(=O)[C@H](Cc2ccc(O)cc2)NC(=O)[C@H]2NC(=O)[C@H](CC(C)C)NC(=O)[C@@H]3CCCN3C(=O)[C@H]3CCCN3C(=O)[C@H](CO)NC(=O)[C@@H](NC(=O)[C@@H](NC(=O)[C@H](CCN)NC(=O)[C@@H](N)Cc3c[nH]c4ccccc34)C(C)C)CSSC2(C)C)[C@@H](C)O)CCNC(=O)[C@H]([C@@H](C)O)NC(=O)[C@H](CCN)NC(=O)[C@H](CCN)NC1=O [Ex. 162] (H-W[Dab]VCS[dP]PL[Pen]Y[Dab]G[Dab]T[Dab][Dab][Dab][dL]L[Dab][Dab]T; disulfide 4-9; lactam 16-C) | 0.125 | 0.5 | 0.25 | 0.0625 | 2 | 0.25 | 1 | <1 |  |
| CC(=O)N[C@@H](Cc1c[nH]c2ccccc12)C(=O)N[C@@H](CCN)C(=O)N[C@H](C(=O)N[C@H]1CC(=O)NCC[C@@H](C(=O)N[C@@H](Cc2ccc(O)cc2)C(=O)N[C@@H](CCN)C(=O)N[C@H](C(=O)N[C@@H](CCN)C(=O)N[C@@H](CCN)C(=O)N[C@@H](CCN)C(=O)N[C@H]2CCNC(=O)[C@H]([C@@H](C)O)NC(=O)[C@H](CCN)NC(=O)[C@H](CCN)NC(=O)[C@H](CC(C)C)NC(=O)[C@@H](Cc3ccccc3)NC(=O)[C@H](CCN)NC2=O)[C@@H](C)O)NC(=O)[C@H](C(C)C)NC(=O)[C@@H]2CCCN2C(=O)[C@H]2CCCN2C(=O)[C@H](Cc2c[nH]cn2)NC1=O)C(C)(C)C [Ex. 167] (Ac-W[Dab][Tle]DH[dP]PV[Dab]Y[Dab]T[Dab][Dab][Dab][Dab][Dab][dF]L[Dab][Dab]T; lactam 4-9, 16-C) | 1 | 0.5 | 1 | 0.25 | 2 | 0.25 | 0.125 |  | <1 |
| CC(=O)N[C@@H](Cc1c[nH]c2ccccc12)C(=O)N[C@@H](CCN)C(=O)N[C@H](C(=O)N[C@H]1CC(=O)NCC[C@@H](C(=O)N[C@@H](Cc2ccc(O)cc2)C(=O)N[C@@H](CCN)C(=O)N[C@H](C(=O)N[C@@H](CCN)C(=O)N[C@@H](CCN)C(=O)N[C@@H](CCN)C(=O)N[C@H]2CCNC(=O)[C@H]([C@@H](C)O)NC(=O)[C@H](CCN)NC(=O)[C@H](CCN)NC(=O)[C@H](CC(C)C)NC(=O)[C@@H](CC(C)C)NC(=O)[C@H](CCN)NC2=O)[C@@H](C)O)NC(=O)[C@H](C(C)C)NC(=O)[C@@H]2CCCN2C(=O)[C@H]2CCCN2C(=O)[C@H](Cc2c[nH]cn2)NC1=O)C(C)(C)C [Ex. 168] (Ac-W[Dab][Tle]DH[dP]PV[Dab]Y[Dab]T[Dab][Dab][Dab][Dab][Dab][dL]L[Dab][Dab]T; lactam 4-9, 16-C) | 1 | 2 | 0.5 | 0.5 | 4 | 1 | 0.25 |  | 3 |
